Measured values as given in ChEMBL document CHEMBL1134197, “A series of quinoline analogues as potent inhibitors of C. albicans prolyl tRNA synthetase” (Bioorg Med Chem Lett, 2001).
Converted amounts (≈) assume the structure as drawn.

How the values were obtained:
[1] = molecular target: T1, Proline--tRNA ligase, cytoplasmic (Candida albicans, UniProt P78600); test: Aminoacylation activity against Candida albicans prolyl-tRNA synthetase
T1 sequence (P78600 whole entry): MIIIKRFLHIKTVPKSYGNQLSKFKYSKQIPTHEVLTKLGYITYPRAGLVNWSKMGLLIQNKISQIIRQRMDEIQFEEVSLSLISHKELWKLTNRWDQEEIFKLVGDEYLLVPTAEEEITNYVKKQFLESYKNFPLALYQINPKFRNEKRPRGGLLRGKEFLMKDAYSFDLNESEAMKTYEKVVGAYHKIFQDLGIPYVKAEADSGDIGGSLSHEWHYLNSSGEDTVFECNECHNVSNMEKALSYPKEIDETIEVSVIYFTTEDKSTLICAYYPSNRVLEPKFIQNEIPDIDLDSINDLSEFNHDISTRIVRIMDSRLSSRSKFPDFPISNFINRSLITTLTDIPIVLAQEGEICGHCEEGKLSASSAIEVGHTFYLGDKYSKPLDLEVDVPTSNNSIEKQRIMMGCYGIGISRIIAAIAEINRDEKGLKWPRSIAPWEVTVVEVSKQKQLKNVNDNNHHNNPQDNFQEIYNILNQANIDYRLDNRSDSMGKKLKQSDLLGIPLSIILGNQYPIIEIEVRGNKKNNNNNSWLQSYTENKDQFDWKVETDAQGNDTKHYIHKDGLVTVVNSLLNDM

[2] = molecular target: Bifunctional glutamate/proline--tRNA ligase (Homo sapiens, UniProt P07814); test: Aminoacylation activity against human prolyl-tRNA synthetase
[3] = Minimum inhibitory concentration (MIC) against Candida albicans (has cellular activity); format: functional
Candida albicans = test: Compound was evaluated for the minimum inhibitory concentration (MIC) against Candida albicans (no cell activity); format: functional
[4] = Competitive inhibition against Candida albicans prolyl-tRNA synthetase (Ca. ProRS) with respect to ATP
[5] = Non-competitive inhibition against Candida albicans prolyl-tRNA synthetase (Ca. ProRS) with respect to proline

Bifunctional glutamate/proline--tRNA ligase, sequence (P07814 whole entry): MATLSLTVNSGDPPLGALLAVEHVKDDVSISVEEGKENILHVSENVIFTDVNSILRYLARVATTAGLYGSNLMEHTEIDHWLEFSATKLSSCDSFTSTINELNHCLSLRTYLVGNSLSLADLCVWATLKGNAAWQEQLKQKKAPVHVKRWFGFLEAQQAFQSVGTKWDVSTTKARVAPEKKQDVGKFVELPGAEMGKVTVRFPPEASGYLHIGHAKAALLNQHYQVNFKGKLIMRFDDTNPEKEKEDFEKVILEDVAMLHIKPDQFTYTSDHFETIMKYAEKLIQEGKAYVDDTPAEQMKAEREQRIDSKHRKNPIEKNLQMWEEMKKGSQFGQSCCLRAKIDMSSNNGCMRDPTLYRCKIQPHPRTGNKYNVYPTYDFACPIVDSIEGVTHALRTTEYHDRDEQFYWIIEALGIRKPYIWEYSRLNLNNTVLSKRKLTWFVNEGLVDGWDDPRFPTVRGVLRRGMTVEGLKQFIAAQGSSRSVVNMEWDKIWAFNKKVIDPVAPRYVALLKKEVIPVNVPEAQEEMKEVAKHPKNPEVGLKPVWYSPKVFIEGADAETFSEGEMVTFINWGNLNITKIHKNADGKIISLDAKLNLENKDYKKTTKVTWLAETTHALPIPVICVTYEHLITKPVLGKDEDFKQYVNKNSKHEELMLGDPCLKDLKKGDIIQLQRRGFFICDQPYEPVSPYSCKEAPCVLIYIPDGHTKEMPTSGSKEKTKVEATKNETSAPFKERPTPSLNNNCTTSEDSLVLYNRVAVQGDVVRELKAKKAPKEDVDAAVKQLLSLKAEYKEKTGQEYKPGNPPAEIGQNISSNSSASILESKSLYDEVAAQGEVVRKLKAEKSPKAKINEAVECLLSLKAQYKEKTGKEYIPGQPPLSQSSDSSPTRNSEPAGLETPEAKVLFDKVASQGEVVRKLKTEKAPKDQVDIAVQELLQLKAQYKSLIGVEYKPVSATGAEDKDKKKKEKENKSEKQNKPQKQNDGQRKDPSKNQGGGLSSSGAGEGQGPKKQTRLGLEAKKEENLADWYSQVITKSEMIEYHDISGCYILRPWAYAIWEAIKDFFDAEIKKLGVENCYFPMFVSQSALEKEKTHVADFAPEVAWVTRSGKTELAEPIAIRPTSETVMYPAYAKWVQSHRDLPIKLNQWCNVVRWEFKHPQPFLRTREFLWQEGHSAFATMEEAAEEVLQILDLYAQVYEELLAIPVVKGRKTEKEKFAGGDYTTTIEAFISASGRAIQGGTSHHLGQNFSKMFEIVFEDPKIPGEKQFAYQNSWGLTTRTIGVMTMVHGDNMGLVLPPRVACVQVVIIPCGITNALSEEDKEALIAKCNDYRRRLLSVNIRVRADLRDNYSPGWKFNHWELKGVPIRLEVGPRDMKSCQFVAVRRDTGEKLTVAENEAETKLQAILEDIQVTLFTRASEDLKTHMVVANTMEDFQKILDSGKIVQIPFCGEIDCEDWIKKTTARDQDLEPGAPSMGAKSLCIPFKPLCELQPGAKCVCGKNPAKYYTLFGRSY

Row | SMILES | IC50 [1] | IC50 [2] | further results
1 | Nc1ccc2nc(-c3ccc(Br)cc3)cc(C(=O)O)c2c1 | 3.3 µM | 95 µM | –
2 | O=C(O)c1cc(-c2ccc(Br)cc2)nc2ccc(S(=O)(=O)O)cc12 | 15 µM | > 100 µM | –
3 | O=C(O)c1cc(-c2ccncc2)nc2ccccc12 | > 100 µM | > 100 µM | –
4 | O=C(O)c1cc(-c2ccc(Br)cc2)nc2ccccc12 | 0.5 µM | > 100 µM | –
5 | O=C(O)c1cc(-c2ccc(Br)cc2)nc2ccc(OC(F)(F)F)cc12 | 0.053 µM | > 100 µM | –
6 | O=C(O)c1cc(-c2ccc(Br)cc2)nc2ccc(I)cc12 | 0.019 µM | > 100 µM | –
7 | O=C(O)c1cc(-c2ccc3ccccc3c2)nc2ccccc12 | 3.6 µM | > 100 µM | –
8 | O=C(O)c1cc(-c2ccc(Cl)s2)nc2ccccc12 | 32 µM | > 100 µM | –
9 | O=C(O)c1cc(-c2ccccc2)nc2ccccc12 [CINCHOPHEN] | > 100 µM | > 100 µM | –
10 | COc1ccc(-c2cc(C(=O)O)c3ccccc3n2)cc1 | > 100 µM | > 100 µM | –
11 | O=C(O)c1cc(-c2ccc(Br)cc2)nc2ccc(-c3ccc(O)cc3)cc12 | 0.35 µM | 35 µM | –
12 | O=C(O)c1cc(-c2ccc(C(F)(F)F)cc2)nc2ccccc12 | > 100 µM | > 100 µM | –
13 | O=C(O)c1cc(-c2ccc(Br)cc2)nc2c(C(F)(F)F)cc(Br)cc12 | 0.22 µM | 56 µM | –
14 | O=C(O)c1cc(-c2ccc(Br)cc2)nc2ccc(Br)cc12 | 0.025 µM | > 20 µM | –
15 | O=C(O)c1cc(-c2ccco2)nc2ccccc12 | > 100 µM | > 100 µM | –
16 | O=C(O)c1cc(-c2ccc(Cl)c(Cl)c2)nc2ccccc12 | 19 µM | > 100 µM | –
17 | O=C(O)/C=C/c1ccc2nc(-c3ccc(Br)cc3)cc(C(=O)O)c2c1 | 1.3 µM | 80 µM | –

The next lines start with results.

Row | IC50 [1] | IC50 [2] | SMILES | further results
18 | 8.8 µM | > 100 µM | Cc1cc(Cl)cc2c(C(=O)OCc3ccc(-c4ccccc4)cc3)cc(-c3ccc(Br)cc3)nc12 | –
19 | 0.15 µM | 70 µM | Cc1c(Br)ccc2c(C(=O)O)cc(-c3ccc(Br)cc3)nc12 | MIC [3]: 25 µg/mL (≈ 59.4 µM)
20 | 1.5 µM | > 100 µM | O=C(O)c1cc(-c2ccc(Br)cc2)nc2c(CO)cc(Cl)cc12 | –
21 | 0.07 µM | > 100 µM | Cc1cc(Cl)cc2c(C(=O)OCc3ccco3)cc(-c3ccc(Br)cc3)nc12 | –
22 | 2.4 µM | – | Cc1cc(Cl)cc2c(COS(N)(=O)=O)cc(-c3ccc(Br)cc3)nc12 | –
23 | 5.7 µM | > 100 µM | COC(=O)C(Cc1ccccc1)NC(=O)c1cc(-c2ccc(Br)cc2)nc2c(C)cc(Cl)cc12 (configuration not stated) | –
24 | 0.02 µM | > 100 µM | Cc1cc(Cl)cc2c(C(=O)OCc3ccc(Cl)c(Cl)c3)cc(-c3ccc(Br)cc3)nc12 | –
25 | 0.025 µM | > 20 µM | Cc1cc(Cl)c2nc(-c3ccc(Br)cc3)cc(C(=O)O)c2c1 | –
26 | 0.12 µM | 60 µM | Cc1c(F)ccc2c(C(=O)O)cc(-c3ccc(Br)cc3)nc12 | –
27 | 0.14 µM | > 100 µM | O=C(O)c1cc(-c2ccc(Br)cc2)nc2cc(Cl)cc(Cl)c12 | –
28 | 0.005 µM | > 20 µM | Cc1cc(Cl)cc2c(C(=O)O)cc(-c3ccc(Br)cc3)nc12 | MIC (Candida albicans): > 100 µg/mL; Ki [4]: 0.0051 µM; Ki [5]: 0.015 µM
29 | 0.03 µM | > 100 µM | Cc1cc(Cl)cc2c(-c3nn[nH]n3)cc(-c3ccc(Br)cc3)nc12 | –
30 | 0.026 µM | > 20 µM | O=C(O)c1cc(-c2ccc(Br)cc2)nc2ccc(Cl)cc12 | –
31 | 1.5 µM | > 100 µM | Cc1cc(Cl)cc2nc(-c3ccc(Br)cc3)cc(C(=O)O)c12 | –
32 | 25 µM | > 100 µM | Cc1cc(C)c2nc(-c3ccc(Br)cc3)cc(C(=O)O)c2c1 | –
